Measurements as given in US5543415A, “Antidepressants” (Kyowa Hakko Kogyo Co., Ltd., priority 1992, dated 1996).

System: ddY-strain male mice
Assay: Acute Toxicity Test (minimum lethal dose, oral)
Assay type: in vivo
Conditions: seven days after administration
Protocol: Test compounds were orally administered to groups of ddY-strain male mice weighing 20±1 g, each group consisting of three mice. Seven days after the administration, minimum lethal dose (MLD) of each compound was determined by observing the mortality.

SMILES | MLD (minimum lethal dose)
CCn1c(=O)c2c(nc(/C=C/c3cccc([N+](=O)[O-])c3)n2C)n(CC)c1=O [Compound 160, (E)-1,3-Diethyl-7-methyl-8-(3-nitrostyryl)xanthine] | > 100 mg/kg
CCn1c(=O)c2[nH]c(/C=C/c3cccc(Br)c3)nc2n(CC)c1=O [Compound 161, (E)-8-(3-Bromostyryl)-1,3-diethylxanthine] | > 100 mg/kg
CCn1c(=O)c2[nH]c(/C=C/c3cccc(C(F)(F)F)c3)nc2n(CC)c1=O [Compound 163, (E)-1,3-Diethyl-8-(3-trifluoromethylstyryl)xanthine] | > 100 mg/kg
CCn1c(=O)c2c(nc(/C=C/c3cccc(C(F)(F)F)c3)n2C)n(CC)c1=O [Compound 164, (E)-1,3-Diethyl-7-methyl-8-(3-trifluoromethylstyryl)xanthine] | > 100 mg/kg
CCn1c(=O)c2[nH]c(/C=C/c3cc4c(cc3Br)OCO4)nc2n(CC)c1=O [Compound 165, (E)-8-(2-Bromo-4,5-methylenedioxystyryl)-1,3-diethylxanthine] | > 100 mg/kg
CCn1c(=O)c2c(nc(/C=C/c3cc4c(cc3Br)OCO4)n2C)n(CC)c1=O [Compound 166, (E)-8-(2-Bromo-4,5-methylenedioxystyryl)-1,3-diethyl-7-methylxanthine] | > 100 mg/kg
CCn1c(=O)c2[nH]c(/C=C/c3ccccc3F)nc2n(CC)c1=O [Compound 167, (E)-1,3-Diethyl-8-(2-fluorostyryl)xanthine] | > 100 mg/kg
CCn1c(=O)c2[nH]c(/C=C/c3ccc(N(C)C)cc3)nc2n(CC)c1=O [Compound 169, (E)-8-[4-(N,N-Dimethylamino)styryl]-1,3-diethylxanthine] | > 100 mg/kg
CCn1c(=O)c2[nH]c(/C=C/c3ccc(-c4ccccc4)cc3)nc2n(CC)c1=O [Compound 170, (E)-1,3-Diethyl-8-(4-phenylstyryl)xanthine] | > 100 mg/kg
CCn1c(=O)c2c(nc(/C=C/c3ccc(-c4ccccc4)cc3)n2C)n(CC)c1=O [Compound 171, (E)-1,3-Diethyl-7-methyl-8-(4-phenylstyryl)xanthine] | > 100 mg/kg
CCn1c(=O)c2[nH]c(/C=C/c3ccc(OC)c(F)c3)nc2n(CC)c1=O [Compound 172, (E)-1,3-Diethyl-8-(3-fluoro-4-methoxystyryl)xanthine] | > 100 mg/kg
CCn1c(=O)c2[nH]c(/C=C/c3ccc(OC)c(C)c3)nc2n(CC)c1=O [Compound 174, (E)-1,3-Diethyl-8-(4-methoxy-3-methylstyryl)xanthine] | > 100 mg/kg
CCn1c(=O)c2[nH]c(/C=C/c3ccc(F)c(Cl)c3)nc2n(CC)c1=O [Compound 176, (E)-8-(3-Chloro-4-fluorostyryl)-1,3-diethylxanthine] | > 100 mg/kg
CCn1c(=O)c2c(nc(/C=C/c3ccc(F)c(Cl)c3)n2C)n(CC)c1=O [Compound 177, (E)-8-(3-Chloro-4-fluorostyryl)-1,3-diethyl-7-methylxanthine] | > 100 mg/kg
CCn1c(=O)c2[nH]c(/C=C/c3cc(OC)c4c(c3)OCO4)nc2n(CC)c1=O [Compound 178, (E)-1,3-Diethyl-8-(3-methoxy-4,5-methylenedioxystyryl)xanthine] | > 100 mg/kg
CCn1c(=O)c2[nH]c(/C=C/c3cccc(F)c3C)nc2n(CC)c1=O [Compound 180, (E)-1,3-Diethyl-8-(3-fluoro-2-methylstyryl)xanthine] | > 100 mg/kg
CCn1c(=O)c2c(nc(/C=C/c3ccc(O)c(O)c3)n2C)n(CC)c1=O [Compound 182, (E)-8-(3,4-Dihydroxystyryl)-1,3-diethyl-7-methylxanthine] | > 100 mg/kg
CCn1c(=O)c2c(nc(/C=C/c3ccc(OC)c(O)c3)n2C)n(CC)c1=O [Compound 183, (E)-1,3-Diethyl-8-(3-hydroxy-4-methoxystyryl)-7-methylxanthine] | > 100 mg/kg
CCn1c(=O)c2c(nc(/C=C/c3ccc(OCCCCBr)cc3)n2C)n(CC)c1=O [Compound 186, (E)-8-[4-(4-Bromobutoxy)styryl]-1,3-diethyl-7-methylxanthine] | > 100 mg/kg
CCn1c(=O)c2c(nc(/C=C/c3ccc(OCCCCN=[N+]=[N-])cc3)n2C)n(CC)c1=O [Compound 187, (E)-8-[4-(4-Azidobutoxy)styryl]-1,3-diethyl-7-methylxanthine] | > 100 mg/kg
CCn1c(=O)c2c(nc(/C=C/c3ccc(OCCCCN)cc3)n2C)n(CC)c1=O [Compound 188, (E)-8-[4-(4-Aminobutoxy)styryl]-1,3-diethyl-7-methylxanthine] | > 100 mg/kg
CCOC(=O)COc1ccc(/C=C/c2nc3c(c(=O)n(CC)c(=O)n3CC)n2C)cc1 [Compound 189, (E)-8-(4-Ethoxycarbonylmethoxystyryl)-1,3-diethyl-7-methylxanthine] | > 100 mg/kg
CCn1c(=O)c2c(nc(/C=C/c3ccc(OCC(=O)O)cc3)n2C)n(CC)c1=O [Compound 190, (E)-8-(4-Carboxymethoxystyryl)-1,3-diethyl-7-methylxanthine] | > 100 mg/kg
CCn1c(=O)c2[nH]c(/C=C/c3cccc(Oc4ccccc4)c3)nc2n(CC)c1=O [Compound 191, (E)-1,3-Diethyl-8-(3-phenoxystyryl)xanthine] | > 100 mg/kg
CCn1c(=O)c2c(nc(/C=C/c3cccc(Oc4ccccc4)c3)n2C)n(CC)c1=O [Compound 192, (E)-1,3-Diethyl-7-methyl-8-(3-phenoxystyryl)xanthine] | > 100 mg/kg
CCn1c(=O)c2[nH]c(/C=C/c3ccc(O)cc3)nc2n(CC)c1=O [Compound 193, (E)-1,3-Diethyl-8-(4-hydroxystyryl)xanthine] | > 100 mg/kg
CCn1c(=O)c2c(nc(/C=C/c3ccc(O)c(C)c3C)n2C)n(CC)c1=O [Compound 194, (E)-1,3-Diethyl-8-(4-hydroxy-2,3-dimethylstyryl)-7-methylxanthine] | > 100 mg/kg
